In ChEMBL document CHEMBL4825746, “Combination Therapy Comprising A2A/A2B and PD-1/PD-L1 Inhibitors for Treating Cancer” (ACS Med Chem Lett, 2021):

Columns and labels:
Adenosine receptor A2b = molecular target: T1, Adenosine receptor A2b (Homo sapiens, UniProt P29275); test: Inhibition of human adenosine A2B receptor expressed in HEK293 cells assessed as reduction in NECA-stimulated cAMP accumulation preincubated for 30 mins followed by NECA stimulation for 60 mins by FRET assay; format: functional, cell-based
T1 sequence (P29275 whole entry): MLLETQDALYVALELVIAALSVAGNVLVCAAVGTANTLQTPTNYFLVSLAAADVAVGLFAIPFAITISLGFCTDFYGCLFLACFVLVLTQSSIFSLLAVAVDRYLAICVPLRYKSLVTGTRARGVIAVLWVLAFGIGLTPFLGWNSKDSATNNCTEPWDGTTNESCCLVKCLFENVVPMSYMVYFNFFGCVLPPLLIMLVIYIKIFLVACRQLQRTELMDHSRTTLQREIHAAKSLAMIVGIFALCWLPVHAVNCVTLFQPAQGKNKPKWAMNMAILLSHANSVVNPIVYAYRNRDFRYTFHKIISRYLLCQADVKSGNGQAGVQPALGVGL

Adenosine receptor A2a = Adenosine receptor A2a (Homo sapiens, UniProt P29274); test: Displacement of L0058RED from adenosine A2A receptor (unknown origin) in Tag-lite labeled cells measured after 45 mins by fluorescence based HTRF assay; format: cell-based
Sequence of Adenosine receptor A2a (P29274 whole entry): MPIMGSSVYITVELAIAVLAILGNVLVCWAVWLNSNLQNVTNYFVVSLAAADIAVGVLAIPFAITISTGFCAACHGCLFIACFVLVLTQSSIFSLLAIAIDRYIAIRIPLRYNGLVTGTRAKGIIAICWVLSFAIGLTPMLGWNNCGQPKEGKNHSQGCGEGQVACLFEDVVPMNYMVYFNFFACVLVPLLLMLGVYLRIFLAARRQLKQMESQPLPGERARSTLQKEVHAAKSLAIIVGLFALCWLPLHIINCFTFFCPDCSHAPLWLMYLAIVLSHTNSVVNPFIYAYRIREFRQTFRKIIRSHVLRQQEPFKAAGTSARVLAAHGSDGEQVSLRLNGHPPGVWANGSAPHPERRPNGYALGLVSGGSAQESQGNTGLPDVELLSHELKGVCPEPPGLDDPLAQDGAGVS

Row | SMILES | EC50 (Adenosine receptor A2b) [nM] | Ki (Adenosine receptor A2a) [nM]
1 | N#Cc1cccc(-c2cc3nc(C(O)c4c(F)cccc4F)nn3c(N)n2)c1F (configuration not stated) | ≤ 10 | ≤ 10
2 | Cc1ncoc1-c1c(-c2cccc(C#N)c2)nc(N)c2nc(C(N)c3c(F)cccc3F)nn12 (configuration not stated) | ≤ 10 | ≤ 10
3 | N#Cc1cccc(-c2nc(N)n3nc(C(O)c4c(F)cccc4F)nc3c2C#N)c1F (configuration not stated) | ≤ 10 | ≤ 10
4 | N#Cc1cccc(-c2nc(N)n3nc(Cc4cccnc4)nc3c2-c2ccncn2)c1 | ≤ 10 | ≤ 10
5 | Cn1nccc1-c1c(-c2cccc(C#N)c2F)nc(N)c2nn(Cc3ccccn3)nc12 | ≤ 10 | ≤ 10
6 | N#Cc1cccc(-c2nc(N)c3nn(Cc4ncccc4F)nc3c2-c2ccncc2)c1 | ≤ 10 | ≤ 10
